Test results reported in patent publication US5541163A, “Renin inhibiting N-(2-amino-2-oxoethyl)butanediamide derivatives” (Bio-Mega/Boehringer Ingelheim Research Inc., priority 1993, dated 1996).

Molecular target: T1, human renin (Homo sapiens, UniProt P00797)
T1 construct: A human plasma pool is used as the source of both the substrate (angiotensinogen) and the enzyme (renin); from tissue; host or cells: human plasma pool
T1 sequence (P00797 67-406): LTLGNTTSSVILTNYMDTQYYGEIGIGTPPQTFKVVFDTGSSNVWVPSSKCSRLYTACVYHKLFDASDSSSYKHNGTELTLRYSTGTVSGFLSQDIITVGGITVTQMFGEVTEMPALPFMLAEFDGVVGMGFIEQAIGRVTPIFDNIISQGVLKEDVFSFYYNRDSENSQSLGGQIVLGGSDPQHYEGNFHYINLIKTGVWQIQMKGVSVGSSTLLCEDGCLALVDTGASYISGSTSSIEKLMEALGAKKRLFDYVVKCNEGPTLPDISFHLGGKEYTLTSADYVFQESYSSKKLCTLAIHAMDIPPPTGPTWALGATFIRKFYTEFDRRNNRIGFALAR
Assay: Plasma renin assay (inhibition of human renin, angiotensin I by RIA)
Type: biochemical
Details: human plasma pool, pH 6.0, 2 h incubation at 37°
Procedure, shortened: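 Pooled human plasma supplies both renin and angiotensinogen; inhibitor in MES/1% HSA buffer (1% DMSO final) incubated 2 h at 37° at pH 6.0. Angiotensin I generated quantified by radioimmunoassay, inhibition relative to no-inhibitor control, IC50 by nonlinear regression.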

Which IC50 does the source give for `CC(C)C[C@H](O)[C@H](O)[C@H](CC1CCCCC1)NC(=O)[C@@H](CC(=O)N(CC(=O)N(C)CCc1ccccn1)CC1CCCCC1)Cc1cccnc1` [Compound 66, N^4-(cyclohexylmethyl)-N^4 -{2-{methyl-[2-(2-pyridinyl)ethyl]amino}-2-oxoethyl}-N^1-[1(S)-(cyclohexylmethyl)-2(R),3(S)-dihydroxy-5-methylhexyl]-2(R)-(3-pyridinylmethyl)-butanediamide] here?
Its IC50 is 10 nM.

With `CC(C)C[C@H](O)[C@H](O)[C@H](CC1CCCCC1)NC(=O)[C@@H](CC(=O)N(CC(=O)N1CCOCC1)CC1CCCCC1)Cc1ccccn1` [Compound 67, N^4-(cyclohexylmethyl)-N^4-(2-morpholino-2-oxoethyl)-N^1-[1(S)-(cyclohexylmethyl)-2(R),3(S)-dihydroxy-5-methylhexyl]-2(R)-(2-pyridinylmethyl)butanediamide] as the compound, how does the IC50 read?
The IC50 was 4 nM.

With `CC(C)C[C@H](O)[C@H](O)[C@H](CC1CCCCC1)NC(=O)[C@@H](CC(=O)N(CC(=O)N(C)C)CC1CCCCC1)Cc1ccccn1` [Compound 68, N^4-(cyclohexylmethyl)-N^4-[2-(dimethylamino)-2-oxoethyl]-N^1-[1(S)-(cyclohexylmethyl)-2(R),3(S)-dihydroxy-5-methylhexyl]-2(R)-(2-pyridinylmethyl)butanediamide] as the compound, how does the IC50 read?
Its IC50 is 4 nM.

With `CC(C)C[C@H](O)[C@H](O)[C@H](CC1CCCCC1)NC(=O)[C@@H](CC(=O)N(CC(=O)N(C)C)CC1CCCC1)Cc1cccnc1` [Compound 69, N^4-(cyclopentylmethyl)-N^4-[2-(dimethylamino)-2-oxoethyl]-N^1-[1(S)-(cyclohexylmethyl)-2(R),3(S)-dihydroxy-5-methylhexyl]-2(R)-(3-pyridinylmethyl)butanediamide] as the compound, how does the IC50 read?
Its IC50 is 32 nM.

For `CC(C)C[C@H](O)[C@H](O)[C@H](CC1CCCCC1)NC(=O)[C@@H](CC(=O)N(CC(=O)N(C)C)CC1CCCCCC1)Cc1cccnc1` [Compound 70, N^4-(cycloheptylmethyl)-N^4-[2-(dimethylamino)-2-oxoethyl]-N^1-[1(S)-(cyclohexylmethyl)-2(R),3(S)-dihydroxy-5-methylhexyl]-2(R)-(3-pyridinylmethyl)butanediamide], which IC50 is on record?
Its IC50 is 7 nM.

`CC(C)C[C@H](O)[C@H](O)[C@H](CC1CCCCC1)NC(=O)[C@@H](CC(=O)N(CC(=O)N(C)CCc1ccccn1)CC1CCCC1)Cc1csc(N)n1` [Compound 71, N^4-(cyclopentylmethyl)-N^4 -{2-{methyl[2-(2-pyridinyl)ethyl]-amino}-2-oxoethyl]-N^1-[1(S)-(cyclohexylmethyl)-2(R),3(S)-dihydroxy-5-methylhexyl]-2(R)-[(2-amino-4-thiazolyl)methyl]butanediamide] was tested. Which IC50 did it give?
Its IC50 is 1 nM.

For `CC(C)C[C@H](O)[C@H](O)[C@H](CC1CCCCC1)NC(=O)[C@@H](CC(=O)N(CC(=O)N(C)CCc1ccccn1)Cc1cccs1)Cc1csc(N)n1` [Compound 72, N^4 -{2-{methyl[2-(2-pyridinyl)ethyl]-amino}-2-oxoethyl}-N^4-(2-thienylmethyl)-N^1-[1(S)-(cyclohexylmethyl)-2(R),3(S)-dihydroxy-5-methylhexyl]-2(R)-[(2-amino-4-thiazolyl)methyl]-butanediamide], which IC50 is on record?
The IC50 was 2 nM.

Which IC50 does the source give for `Cc1cc(C)cc(CN(CC(=O)N(C)C)C(=O)C[C@@H](Cc2csc(N)n2)C(=O)N[C@@H](CC2CCCCC2)[C@@H](O)[C@@H](O)CC(C)C)c1` [Compound 73, N^4-[2-(dimethylamino)-2-oxoethyl]-N^4-[(3,5-dimethylphenyl)methyl]-N^1-[1(S)-(cyclohexylmethyl)-2(R),3(S)-dihydroxy-5-methylhexyl]-2(R)-[(2-amino-4-thiazolyl)methyl]butanediamide] here?
Its IC50 is 3 nM.

How did the IC50 turn out when `CC(C)OC(=O)[C@H](O)[C@H](CC1CCCCC1)NC(=O)[C@@H](CC(=O)N(CC(=O)N(C)CCc1ccccn1)CC1CCCCC1)Cc1csc(N)n1` [Compound 74, N^4-(cyclohexylmethyl)-N^4 -{2-{methyl-[2-(2-pyridinyl)ethyl]amino}-2-oxoethyl}-N^1-[1(S)-(cyclohexylmethyl)-2(R)-hydroxy-3-(1-methylethoxy)-3-oxopropyl]-2(R)-[(2-amino-4-thiazolyl)methyl]butanediamide] was run?
Its IC50 is 18 nM.

`CC(C)C[C@H](O)[C@H](O)[C@H](CC1CCCCC1)NC(=O)[C@@H](CC(=O)N(CC(=O)N(C)CCc1ccccn1)[C@@H](C)c1ccccc1)Cc1csc(N)n1` [Compound 75, N^4 -{2-{methyl[2-(2-pyridinyl)ethyl]-amino}-2-oxoethyl}-N^4-[1(S)-phenylethyl]-N^1-[1(S)-(cyclohexylmethyl)-2(R),3(S)-dihydroxy-5-methylhexyl]-2(R)-[(2-amino-4-thiazolyl)methyl]butanediamide] was tested. Which IC50 did it give?
Its IC50 is 1 nM.

`CC(C)C[C@H](O)[C@H](O)[C@H](CC1CCCCC1)NC(=O)[C@@H](CC(=O)N(CC(=O)N(C)CCc1cccnc1)CC1CCCCC1)Cc1csc(N)n1` [Compound 76, N^4-(cyclohexylmethyl)-N^4 -{2-{methyl[2-(3-pyridinyl)ethyl]-amino}-2-oxoethyl}-N^1-[1(S)-(cyclohexylmethyl)-2(R),3(S)-dihydroxy-5-methylhexyl]-2(R)-[(2-amino-4-thiazolyl)methyl]butanediamide] was tested. Which IC50 did it give?
Its IC50 is 0.4 nM.

`CC(C)CC[C@H](O)[C@H](CC1CCCCC1)NC(=O)[C@@H](CC(=O)N(CC(=O)N(C)CCc1ccccn1)CC1CCCCC1)Cc1csc(N)n1` [Compound 77, N^4-(cyclohexylmethyl)-N^4 -{2-{methyl[2-(2-pyridinyl)ethyl]-amino}-2-oxoethyl}-N^1-[1(S)-(cyclohexylmethyl)-2(S)-hydroxy-5-methylhexyl]-2(R)-[(2-amino-4-thiazolyl)methyl]butanediamide] was tested. Which IC50 did it give?
The IC50 was 36 nM.

`CC(C)C[C@H](O)[C@H](O)[C@H](CC1CCCCC1)NC(=O)[C@@H](CC(=O)N(CC(=O)N(C)C)CC1CCCCCC1)Cc1csc(N)n1` [Compound 78, N^4-(cycloheptylmethyl)-N^4-[2-(dimethylamino)-2-oxoethyl]-N^1-[1(S)-(cyclohexylmethyl)-2(R),3(S)-dihydroxy-5-methylhexyl]-2(R)-[(2-amino-4-thiazolyl)methyl]butanediamide] was tested. Which IC50 did it give?
Its IC50 is 0.6 nM.

`CC(C)C[C@H](O)[C@H](O)[C@H](CC1CCCCC1)NC(=O)[C@@H](CC(=O)N(CC(=O)N(C)CCc1ccccn1)Cc1ccco1)Cc1csc(N)n1` [Compound 79, N^4-(2-furanylmethyl)-N^4 -{2-{methyl-[2-(2-pyridinyl)ethyl)amino}-2-oxoethyl}-N^1-[1(S)-(cyclohexylmethyl)-2(R),3(S)-dihydroxy-5-methylhexyl]-2(R)-[(2-amino-4-thiazolyl)-methyl]butanediamide] was tested. Which IC50 did it give?
Its IC50 is 1 nM.

For `CC(C)C[C@H](O)[C@H](O)[C@H](CC1CCCCC1)NC(=O)[C@@H](CC(=O)N(CC(=O)N1CCOCC1)CC1CCCC1)Cc1csc(N)n1` [Compound 80, N^4-(cyclopentylmethyl)-N^4-(2-morpholino-2-oxoethyl)-N^1-[1(S)-(cyclohexylmethyl)-2(R),3(S)-dihydroxy-5-methylhexyl]-2(R)-[(2-amino-4-thiazolyl)methyl]butanediamide], which IC50 is on record?
Its IC50 is 2 nM.

For `CC(C)C[C@H](O)[C@H](O)[C@H](CC1CCCCC1)NC(=O)[C@@H](CC(=O)N(CC(=O)N(C)CCc1ccccn1)CC1CCCCCC1)Cc1csc(N)n1` [Compound 81, N^4-(cycloheptylmethyl)-N^4 -{2-{methyl[2-(2-pyridinyl)ethyl]amino}-2-oxoethyl}-N^1-[1(S)-(cyclohexylmethyl)-2(R),3(S)-dihydroxy-5-methylhexyl]-2(R)-[(2-amino-4-thiazolyl)-methyl]butanediamide], which IC50 is on record?
Its IC50 is 1 nM.

`CC(C)C[C@H](O)[C@H](O)[C@H](CC1CCCCC1)NC(=O)[C@@H](CC(=O)N(CC(=O)N(C)CCc1ccccn1)Cc1ccccc1F)Cc1csc(N)n1` [Compound 82, N^4-[(2-fluorophenyl)methyl]-N^4 -{2-{methyl[2-(2-pyridinyl)ethyl]-amino}-2-oxoethyl}-N^1-[1(S)-(cyclohexylmethyl)-2(R),3(S)-dihydroxy-5-methylhexyl]-2(R)-[(2-amino-4-thiazolyl)methyl]butanediamide] was tested. Which IC50 did it give?
Its IC50 is 3 nM.

Which IC50 does the source give for `CC(C)C[C@H](O)[C@H](O)[C@H](CC1CCCCC1)NC(=O)[C@@H](CC(=O)N(CC(=O)N(C)CCN(C)C(=O)N1CCOCC1)CC1CCCCC1)Cc1csc(N)n1` [Compound 83, N^4-(cyclohexylmethyl)-N^4 -{2-{methyl{2-[methyl(morpholinocarbonyl)-amino]ethyl}amino}-2-oxoethyl}-N^1-[1(S)-(cyclohexylmethyl)-2(R),3(S)-dihydroxy-5-methylhexyl]-2(R)-[(2-amino-4-thiazolyl)methyl]butanediamide] here?
Its IC50 is 0.35 nM.

Which IC50 does the source give for `CCC(CC)CN(CC(=O)N(C)CCc1ccccn1)C(=O)C[C@@H](Cc1csc(N)n1)C(=O)N[C@@H](CC1CCCCC1)[C@@H](O)[C@@H](O)CC(C)C` [Compound 84, N^4-(2-ethylbutyl)-N^4 -{2-{methyl[2-(2-pyridinyl)ethyl]amino}-2-oxoethyl}-N^1-[1(S)-(cyclohexylmethyl)-2(R),3(S)-dihydroxy-5-methylhexyl]-2(R)-[(2-amino-4-thiazolyl)methyl]-butanediamide] here?
The IC50 was 3 nM.

Which IC50 does the source give for `CC(C)C[C@H](O)[C@H](O)[C@H](CC1CCCCC1)NC(=O)[C@@H](CC(=O)N(CC(=O)N(C)C)CC1CCCC1)Cc1csc(N)n1` [Compound 85, N^4-(cyclopentylmethyl)-N^4-[2-(dimethylamino)-2-oxoethyl]-N^1-[1(S)-(cyclohexylmethyl)-2(R),3(S)-dihydroxy-5-methylhexyl]-2(R)-[(2-amino-4-thiazolyl)methyl]butanediamide] here?
The IC50 was 1 nM.
